Consider 2 compounds from patent US20130338090A1, “Novel Compound Isolated from Allium tuberosum and Use Thereof as Antiviral Agent” (priority 2011, published 2013).

Where only a bound is given, the exact number is not on record here.

The subject of the experiment is avian influenza virus (H5N1), A/Vietnam/1194/04(H5N1)-NIBRG-14 vaccine strain. The experiment is classed as cell-based.

As to `C[C@@H]1O[C@@H](OC[C@H]2O[C@@H](Oc3c(-c4ccc(O)cc4)oc4cc(O)cc(O)c4c3=O)[C@H](O)[C@@H](O)[C@@H]2O)[C@H](O)[C@H](O)[C@H]1O` [Compound I, kaempferol 3-O-α-L-rhamnopyranosyl (1→6)-β-D-glucopyranoside], the Activity result was “◯ (key: ◯: antiviral activity defined as a decrease of 4 log units; X: antiviral activity defined as a decrease of 4 log units)”, the log100TCID50/ml was determined as 5 and the “viral titer lower than that of the control group” value was determined as 4 log.
Turning to `O=C(O)[C@H]1O[C@@H](Oc2cc(O)c3c(=O)cc(-c4ccc(O)cc4)oc3c2)[C@H](O)[C@@H](O)[C@@H]1O` [Compound II, apigenin 7-O-β-D-glucuronopyranoside], the Activity result is on record as “X (key: ◯: antiviral activity defined as a decrease of 4 log units; X: antiviral activity defined as a decrease of 4 log units)”, the CPE inhibitory concentration was greater than 10 µg/mL and the log100TCID50/ml was determined as 0.
